According to patent publication US9636418B2 (priority 2013, dated 2017):
pIC50: −log10 of the molar value. Like-named read-outs stand apart in the source and are kept apart here.

Tests used:
Assay in all cases: cell-based
hNav1.7 [1] = molecular target: T1, hNav1.7 (Homo sapiens, UniProt Q15858); details: IonWorks Quattro; read-out: IC50 Nav1.7
hNav1.7 [2] = molecular target: T1, hNav1.7; format: cell-based; details: PatchXpress, read-out: PX hNav1.7 Tonic IC50
hNav1.4 = hNav1.4 (Homo sapiens, UniProt P35499); details: for pIC50: PatchXpress, read-out: PX hNav1.4 Tonic IC50
Chain of hNav1.4 (P35499 whole entry): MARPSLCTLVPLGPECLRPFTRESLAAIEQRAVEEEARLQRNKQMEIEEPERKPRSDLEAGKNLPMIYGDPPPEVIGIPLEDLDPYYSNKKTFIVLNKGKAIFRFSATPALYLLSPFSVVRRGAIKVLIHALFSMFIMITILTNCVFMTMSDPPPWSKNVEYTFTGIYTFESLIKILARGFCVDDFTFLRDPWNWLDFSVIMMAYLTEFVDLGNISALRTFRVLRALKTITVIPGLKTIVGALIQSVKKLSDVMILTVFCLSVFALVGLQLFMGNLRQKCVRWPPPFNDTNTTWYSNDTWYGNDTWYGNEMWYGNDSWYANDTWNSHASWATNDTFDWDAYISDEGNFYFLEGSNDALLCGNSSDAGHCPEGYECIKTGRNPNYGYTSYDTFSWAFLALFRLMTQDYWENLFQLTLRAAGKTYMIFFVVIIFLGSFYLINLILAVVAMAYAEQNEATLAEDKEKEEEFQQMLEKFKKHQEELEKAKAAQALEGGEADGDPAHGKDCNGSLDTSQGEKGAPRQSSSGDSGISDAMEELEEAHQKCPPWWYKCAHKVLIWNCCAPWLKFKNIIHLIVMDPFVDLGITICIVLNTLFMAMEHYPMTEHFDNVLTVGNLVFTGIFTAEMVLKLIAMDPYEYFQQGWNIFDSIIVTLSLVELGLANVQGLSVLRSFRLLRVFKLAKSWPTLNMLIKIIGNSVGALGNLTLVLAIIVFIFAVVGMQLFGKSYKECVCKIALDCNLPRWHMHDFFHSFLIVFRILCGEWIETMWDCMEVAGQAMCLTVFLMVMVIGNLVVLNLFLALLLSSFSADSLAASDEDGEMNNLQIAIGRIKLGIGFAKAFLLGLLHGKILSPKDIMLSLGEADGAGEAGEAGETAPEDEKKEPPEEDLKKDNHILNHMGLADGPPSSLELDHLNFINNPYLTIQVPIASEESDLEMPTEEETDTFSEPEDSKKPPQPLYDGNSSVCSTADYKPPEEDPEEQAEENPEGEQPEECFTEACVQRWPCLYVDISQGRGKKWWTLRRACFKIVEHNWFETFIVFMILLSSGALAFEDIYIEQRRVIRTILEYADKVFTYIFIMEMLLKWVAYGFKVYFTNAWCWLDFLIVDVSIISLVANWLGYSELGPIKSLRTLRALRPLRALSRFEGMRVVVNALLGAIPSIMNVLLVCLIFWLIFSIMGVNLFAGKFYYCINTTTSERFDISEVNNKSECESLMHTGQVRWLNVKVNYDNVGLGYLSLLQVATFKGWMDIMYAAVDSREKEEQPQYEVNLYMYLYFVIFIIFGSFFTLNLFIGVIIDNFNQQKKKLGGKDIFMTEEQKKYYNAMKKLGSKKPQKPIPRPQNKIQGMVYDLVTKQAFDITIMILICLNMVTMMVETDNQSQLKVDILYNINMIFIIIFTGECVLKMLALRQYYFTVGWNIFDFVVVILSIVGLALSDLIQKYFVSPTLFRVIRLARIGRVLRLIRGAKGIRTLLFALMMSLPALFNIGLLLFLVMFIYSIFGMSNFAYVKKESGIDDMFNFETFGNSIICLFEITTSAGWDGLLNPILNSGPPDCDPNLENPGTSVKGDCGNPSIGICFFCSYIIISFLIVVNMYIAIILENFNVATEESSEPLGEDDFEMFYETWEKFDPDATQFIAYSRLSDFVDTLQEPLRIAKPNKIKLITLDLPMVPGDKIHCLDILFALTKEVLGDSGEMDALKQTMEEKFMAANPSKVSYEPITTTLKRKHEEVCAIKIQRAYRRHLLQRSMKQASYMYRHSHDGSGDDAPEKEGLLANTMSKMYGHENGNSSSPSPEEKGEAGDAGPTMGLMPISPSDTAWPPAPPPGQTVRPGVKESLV

hNav1.5 = hNav1.5 (Homo sapiens, UniProt Q14524); details: for pIC50: PatchXpress, read-out: PX hNav1.5 Tonic IC50
Chain of hNav1.5 (Q14524 whole entry): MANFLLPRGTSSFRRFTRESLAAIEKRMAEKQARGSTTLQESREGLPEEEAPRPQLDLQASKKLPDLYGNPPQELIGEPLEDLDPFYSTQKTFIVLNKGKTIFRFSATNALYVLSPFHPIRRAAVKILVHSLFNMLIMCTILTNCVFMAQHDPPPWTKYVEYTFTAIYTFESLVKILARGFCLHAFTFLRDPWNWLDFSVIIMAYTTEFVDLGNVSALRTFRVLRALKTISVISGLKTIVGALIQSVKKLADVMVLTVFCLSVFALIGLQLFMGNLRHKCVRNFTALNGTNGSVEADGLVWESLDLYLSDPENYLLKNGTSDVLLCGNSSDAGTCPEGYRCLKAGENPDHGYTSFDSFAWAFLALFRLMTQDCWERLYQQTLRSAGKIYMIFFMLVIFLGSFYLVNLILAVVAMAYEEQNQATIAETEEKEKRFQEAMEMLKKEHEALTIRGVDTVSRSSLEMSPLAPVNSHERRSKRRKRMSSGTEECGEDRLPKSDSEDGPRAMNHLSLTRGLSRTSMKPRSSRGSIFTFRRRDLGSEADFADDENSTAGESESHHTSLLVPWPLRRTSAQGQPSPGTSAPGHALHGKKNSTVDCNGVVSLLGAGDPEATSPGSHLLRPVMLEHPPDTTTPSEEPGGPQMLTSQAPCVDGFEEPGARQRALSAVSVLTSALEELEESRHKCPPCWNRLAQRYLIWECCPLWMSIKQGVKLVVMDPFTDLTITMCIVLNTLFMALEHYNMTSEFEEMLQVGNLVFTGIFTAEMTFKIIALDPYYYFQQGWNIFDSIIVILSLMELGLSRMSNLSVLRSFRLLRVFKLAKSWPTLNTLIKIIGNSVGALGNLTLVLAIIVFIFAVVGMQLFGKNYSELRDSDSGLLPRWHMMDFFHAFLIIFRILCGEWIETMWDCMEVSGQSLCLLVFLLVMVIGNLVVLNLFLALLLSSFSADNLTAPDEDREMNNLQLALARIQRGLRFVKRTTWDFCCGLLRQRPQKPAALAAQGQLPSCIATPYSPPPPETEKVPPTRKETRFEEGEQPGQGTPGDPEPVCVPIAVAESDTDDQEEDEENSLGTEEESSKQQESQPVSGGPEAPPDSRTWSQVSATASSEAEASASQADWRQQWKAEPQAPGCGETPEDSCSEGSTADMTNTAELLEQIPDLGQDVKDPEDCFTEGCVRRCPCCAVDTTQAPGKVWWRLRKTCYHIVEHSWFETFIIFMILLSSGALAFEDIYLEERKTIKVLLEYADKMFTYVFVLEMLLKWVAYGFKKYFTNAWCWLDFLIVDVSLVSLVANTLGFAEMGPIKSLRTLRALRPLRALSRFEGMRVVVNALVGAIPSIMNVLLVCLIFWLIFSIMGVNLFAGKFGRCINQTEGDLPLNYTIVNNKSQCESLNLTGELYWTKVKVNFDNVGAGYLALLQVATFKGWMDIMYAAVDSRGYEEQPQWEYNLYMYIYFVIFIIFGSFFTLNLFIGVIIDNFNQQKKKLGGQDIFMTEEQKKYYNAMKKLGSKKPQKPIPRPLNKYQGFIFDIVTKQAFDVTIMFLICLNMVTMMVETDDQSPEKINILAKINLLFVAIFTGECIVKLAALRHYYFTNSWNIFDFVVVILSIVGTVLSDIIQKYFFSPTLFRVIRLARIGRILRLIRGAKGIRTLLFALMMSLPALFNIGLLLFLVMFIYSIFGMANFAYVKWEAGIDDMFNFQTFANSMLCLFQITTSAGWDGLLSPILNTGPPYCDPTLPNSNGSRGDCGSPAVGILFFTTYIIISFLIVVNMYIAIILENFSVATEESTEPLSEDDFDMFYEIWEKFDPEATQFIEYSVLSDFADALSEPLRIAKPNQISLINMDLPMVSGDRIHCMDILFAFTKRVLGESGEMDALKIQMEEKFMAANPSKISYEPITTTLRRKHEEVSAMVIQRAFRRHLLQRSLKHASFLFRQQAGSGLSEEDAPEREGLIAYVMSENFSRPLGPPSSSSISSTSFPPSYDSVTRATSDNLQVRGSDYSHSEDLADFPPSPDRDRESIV

[3] = * = at high concentrations compound would wash off slowly or not at all

`C#CC[C@H](N)C(=O)N[C@@H](Cc1ccc(O)cc1)C(=O)N[C@H]1CSSC[C@@H]2NC(=O)[C@@H]3CSSC[C@@H](C(=O)N[C@@H](CCCNC(=N)N)C(=O)N[C@@H](CCCCN)C(=O)N[C@H](C(=O)N[C@@H](Cc4c[nH]c5ccccc45)C(N)=O)[C@@H](C)CC)NC(=O)[C@H](Cc4c[nH]c5ccccc45)NC(=O)[C@H](CC(C)C)NC(=O)[C@H](CCCCN)NC(=O)[C@H](CSSC[C@H](NC(=O)[C@H]([C@@H](C)O)NC(=O)[C@H](Cc4c[nH]c5ccccc45)NC(=O)[C@H](CCCC)NC(=O)[C@H](Cc4c[nH]c5ccccc45)NC(=O)[C@H](CCCCN)NC(=O)[C@H](CCC(N)=O)NC1=O)C(=O)N[C@@H](CC(=O)O)C(=O)N[C@@H](CO)C(=O)N[C@@H](CCCCN)C(=O)N[C@@H](CCCNC(=N)N)C(=O)N[C@@H](C)C(=O)N3)NC(=O)[C@H](CCCNC(=N)N)NC(=O)[C@H](CC(C)C)NC(=O)CNC(=O)[C@H](CCC(=O)O)NC2=O` [compound 296] was tested. Which pIC50 (hNav1.7 [1]) did it give?
The pIC50 was 7.72.

With `CCCC[C@@H]1NC(=O)[C@H](Cc2c[nH]c3ccccc23)NC(=O)[C@H](CCCCN)NC(=O)[C@H](CCC(N)=O)NC(=O)[C@@H](NC(=O)[C@@H](N)Cc2ccc(O)cc2)CSSC[C@@H]2NC(=O)[C@@H]3CSSC[C@@H](C(=O)N[C@@H](CCCNC(=N)N)C(=O)N[C@@H](CCCCN)C(=O)N[C@H](C(=O)N[C@@H](Cc4c[nH]c5ccccc45)C(N)=O)[C@@H](C)CC)NC(=O)[C@H](Cc4c[nH]c5ccccc45)NC(=O)[C@H](CC(C)C)NC(=O)[C@H](CCCCN)NC(=O)[C@H](CSSC[C@H](NC(=O)[C@H]([C@@H](C)O)NC(=O)[C@H](Cc4c[nH]c5ccccc45)NC1=O)C(=O)N[C@@H](CC(=O)O)C(=O)N[C@@H](CO)C(=O)N[C@@H](CCCCN)C(=O)N[C@@H](CCCNC(=N)N)C(=O)N[C@@H](C)C(=O)N3)NC(=O)[C@H](CCC(=O)O)NC(=O)[C@H](CC(C)C)NC(=O)CNC(=O)[C@H](CCC(=O)O)NC2=O` [compound 294] as the molecule, how does the pIC50 (hNav1.7 [1]) read?
Its pIC50 is 7.62.

How did the pIC50 (hNav1.7 [1]) turn out when `CCCC[C@@H]1NC(=O)[C@H](Cc2c[nH]c3ccccc23)NC(=O)[C@H](CCCCN)NC(=O)[C@H](CCC(N)=O)NC(=O)[C@@H](NC(=O)[C@@H](N)Cc2ccc(O)cc2)CSSC[C@@H]2NC(=O)[C@@H]3CSSC[C@@H](C(=O)N[C@@H](CCCNC(=N)N)C(=O)N[C@@H](CCCCN)C(=O)N[C@@H](Cc4ccc(O)cc4)C(=O)N[C@H](C(N)=O)[C@@H](C)CC)NC(=O)[C@H](Cc4c[nH]c5ccccc45)NC(=O)[C@H](CC(C)C)NC(=O)[C@H](CCCCN)NC(=O)[C@H](CSSC[C@H](NC(=O)[C@H]([C@@H](C)O)NC(=O)[C@H](Cc4c[nH]c5ccccc45)NC1=O)C(=O)N[C@@H](CC(=O)O)C(=O)N[C@@H](CO)C(=O)N[C@@H](CCCCN)C(=O)N[C@@H](CCCNC(=N)N)C(=O)N[C@@H](C)C(=O)N3)NC(=O)[C@H](CCC(=O)O)NC(=O)[C@H](CC(C)C)NC(=O)CNC(=O)[C@H](CCCCN=[N+]=[N-])NC2=O` [compound 322] was run?
Its pIC50 is 7.17.

`C#CC[C@H](N)C(=O)N[C@@H](Cc1ccc(O)cc1)C(=O)N[C@H]1CSSC[C@@H]2NC(=O)[C@@H]3CSSC[C@@H](C(=O)N[C@@H](CCCNC(=N)N)C(=O)N[C@@H](CCCCN)C(=O)N[C@H](C(=O)N[C@@H](Cc4c[nH]c5ccccc45)C(N)=O)[C@@H](C)CC)NC(=O)[C@H](Cc4c[nH]c5ccccc45)NC(=O)[C@H](CC(C)C)NC(=O)[C@H](CCCCN)NC(=O)[C@H](CSSC[C@H](NC(=O)[C@H]([C@@H](C)O)NC(=O)[C@H](Cc4c[nH]c5ccccc45)NC(=O)[C@H](CCSC)NC(=O)[C@H](Cc4c[nH]c5ccccc45)NC(=O)[C@H](CCCCN)NC(=O)[C@H](CCC(N)=O)NC1=O)C(=O)N[C@@H](CC(=O)O)C(=O)N[C@@H](CO)C(=O)N[C@@H](CCCCN)C(=O)N[C@@H](CCCNC(=N)N)C(=O)N[C@@H](C)C(=O)N3)NC(=O)[C@H](CCC(=O)O)NC(=O)[C@H](CC(C)C)NC(=O)CNC(=O)[C@H](CCC(=O)O)NC2=O` [compound 295] was tested. Which pIC50 (hNav1.7 [1]) did it give?
The pIC50 was 7.74.

`C#CC[C@H](N)C(=O)N[C@@H](Cc1ccc(O)cc1)C(=O)N[C@H]1CSSC[C@@H]2NC(=O)[C@@H]3CSSC[C@@H](C(=O)N[C@@H](CCCNC(=N)N)C(=O)N[C@@H](CCCCN)C(=O)N[C@H](C(=O)N[C@@H](Cc4ccccc4)C(N)=O)[C@@H](C)CC)NC(=O)[C@H](Cc4c[nH]c5ccccc45)NC(=O)[C@H](CC(C)C)NC(=O)[C@H](CCCCN)NC(=O)[C@H](CSSC[C@H](NC(=O)[C@H]([C@@H](C)O)NC(=O)[C@H](Cc4c[nH]c5ccccc45)NC(=O)[C@H](CCCC)NC(=O)[C@H](Cc4c[nH]c5ccccc45)NC(=O)[C@H](CCCCN)NC(=O)[C@H](CCC(N)=O)NC1=O)C(=O)N[C@@H](CC(=O)O)C(=O)N[C@@H](CO)C(=O)N[C@@H](CCCCN)C(=O)N[C@@H](CCCNC(=N)N)C(=O)N[C@@H](C)C(=O)N3)NC(=O)[C@H](CCC(=O)O)NC(=O)[C@H](CC(C)C)NC(=O)CNC(=O)[C@H](CCC(=O)O)NC2=O` [compound 301] was tested. Which pIC50 (hNav1.7 [1]) did it give?
The pIC50 was 7.46.

With `C#CC[C@H](N)C(=O)NCCCC[C@@H]1NC(=O)[C@H](CCCNC(=N)N)NC(=O)[C@H](CCCCN)NC(=O)[C@H](CO)NC(=O)[C@H](CC(=O)O)NC(=O)[C@@H]2CSSC[C@@H]3NC(=O)[C@H](CCCNC(=N)N)NC(=O)[C@H](CC(C)C)NC(=O)CNC(=O)[C@H](CCC(=O)O)NC(=O)[C@H](CSSC[C@H](NC(=O)[C@H](Cc4ccc(O)cc4)NC(=O)[C@@H](N)CC#N)C(=O)N[C@@H](CCC(N)=O)C(=O)N[C@@H](CCCCN)C(=O)N[C@@H](Cc4c[nH]c5ccccc45)C(=O)N[C@@H](CC(C)C)C(=O)N[C@@H](Cc4c[nH]c5ccccc45)C(=O)N[C@@H]([C@@H](C)O)C(=O)N2)NC(=O)[C@H](CSSC[C@@H](C(=O)N[C@@H](CCCNC(=N)N)C(=O)N[C@@H](CCCCN)C(=O)N[C@@H](CCC(=O)O)C(=O)N[C@H](C(N)=O)[C@@H](C)CC)NC(=O)[C@H](Cc2c[nH]c4ccccc24)NC(=O)[C@H](CC(C)C)NC(=O)[C@H](CCCCN)NC3=O)NC1=O` [compound 449] as the molecule, how does the pIC50 (hNav1.7 [2]; tonic block) read?
Its pIC50 is 8.83.

And the pIC50 (hNav1.4; tonic block)?
Its pIC50 is 6.78.

And the pIC50 (hNav1.5; tonic block)?
Its pIC50 is 5.81.

What does the source list for `CC[C@H](C)[C@H](NC(=O)[C@H](CCC(=O)O)NC(=O)[C@H](CCCCN)NC(=O)[C@H](CCCNC(=N)N)NC(=O)[C@@H]1CSSC[C@@H]2NC(=O)[C@H](C)NC(=O)[C@H](CCCNC(=N)N)NC(=O)[C@H](CCCCN)NC(=O)[C@H](CO)NC(=O)[C@H](CC(=O)O)NC(=O)[C@@H]3CSSC[C@H](NC(=O)[C@H](CCCNC(=N)N)NC(=O)[C@H](CC(C)C)NC(=O)CNC(=O)[C@H](CCC(=O)O)NC(=O)[C@H](CSSC[C@H](NC(=O)[C@@H](N)Cc4ccc(O)cc4)C(=O)N[C@@H](CCC(N)=O)C(=O)N[C@@H](CCCCN)C(=O)N[C@@H](Cc4c[nH]c5ccccc45)C(=O)N[C@@H](CCSC)C(=O)N[C@@H](Cc4c[nH]c5ccccc45)C(=O)N[C@@H]([C@@H](C)O)C(=O)N3)NC2=O)C(=O)N[C@@H](CCCCN)C(=O)N[C@@H](CC(C)C)C(=O)N[C@@H](Cc2c[nH]c3ccccc23)C(=O)N1)C(N)=O` [compound 69]?
pIC50 (hNav1.7 [2]; [3]): 9.00; pIC50 (hNav1.4; [3]): 6.52; Nav1.4/Nav1.7 (hNav1.4; ratio of PX IC50 values): 300; pIC50 (hNav1.5; [3]): 5.06; Nav1.5/Nav1.7 (hNav1.5; ratio of PX IC50 values): 8800

`CCCC[C@@H]1NC(=O)[C@H](Cc2c[nH]c3ccccc23)NC(=O)[C@H](CCCCN)NC(=O)[C@H](CCC(N)=O)NC(=O)[C@@H](NC(=O)[C@H](Cc2ccc(O)cc2)NC(=O)[C@@H](N)CCc2ccccc2)CSSC[C@@H]2NC(=O)[C@@H]3CSSC[C@@H](C(=O)N[C@@H](CCCNC(=N)N)C(=O)N[C@@H](CCCCN)C(=O)N[C@H](C(=O)N[C@H](C(N)=O)[C@@H](C)CC)[C@@H](C)CC)NC(=O)[C@H](Cc4c[nH]c5ccccc45)NC(=O)[C@H](CC(C)C)NC(=O)[C@H](CCCCN)NC(=O)[C@H](CSSC[C@H](NC(=O)[C@H]([C@@H](C)O)NC(=O)[C@H](Cc4c[nH]c5ccccc45)NC1=O)C(=O)N[C@@H](CC(=O)O)C(=O)N[C@@H](CO)C(=O)N[C@@H](CCCCN)C(=O)N[C@@H](CCCNC(=N)N)C(=O)N[C@@H](C)C(=O)N3)NC(=O)[C@H](CCCNC(=N)N)NC(=O)[C@H](CC(C)C)NC(=O)CNC(=O)[C@H](CCC(=O)O)NC2=O` [compound 379] was tested. Which pIC50 (hNav1.7 [2]; [3]) did it give?
The pIC50 was 9.32.

And the pIC50 (hNav1.4; [3])?
Its pIC50 is 8.32.

And the Nav1.4/Nav1.7 (hNav1.4; ratio of PX IC50 values)?
Its Nav1.4/Nav1.7 is 10.

And the pIC50 (hNav1.5; [3])?
The pIC50 was 6.36.

What does the source list for `C#CC[C@H](N)C(=O)N[C@H]1CSSC[C@@H]2NC(=O)[C@@H]3CSSC[C@@H](C(=O)N[C@@H](CCCNC(=N)N)C(=O)N[C@@H](CCCCN)C(=O)N[C@H](C(=O)N[C@H](C(N)=O)[C@@H](C)CC)[C@@H](C)CC)NC(=O)[C@H](Cc4c[nH]c5ccccc45)NC(=O)[C@H](CC(C)C)NC(=O)[C@H](CCCCN)NC(=O)[C@H](CSSC[C@H](NC(=O)[C@H]([C@@H](C)O)NC(=O)[C@H](Cc4c[nH]c5ccccc45)NC(=O)[C@H](CCCC)NC(=O)[C@H](Cc4c[nH]c5ccccc45)NC(=O)[C@H](CCCCN)NC(=O)[C@H](CCC(N)=O)NC1=O)C(=O)N[C@@H](CC(=O)O)C(=O)N[C@@H](CO)C(=O)N[C@@H](CCCCN)C(=O)N[C@@H](CCCNC(=N)N)C(=O)N[C@@H](C)C(=O)N3)NC(=O)[C@H](CCC(=O)O)NC(=O)[C@H](CC(C)C)NC(=O)CNC(=O)[C@H](CCC(=O)O)NC2=O` [compound 343]?
pIC50 (hNav1.7 [2]; tonic block): 8.58; pIC50 (hNav1.4; tonic block): 6.10; Nav1.4/Nav1.7 (hNav1.4; ratio of PX tonic IC50 values): 300; pIC50 (hNav1.5; tonic block): 5.58
